Assay results from US20130202719A1, “STABILIZED CHLORITE SOLUTIONS IN COMBINATION WITH FLUROPYRIMIDINES FOR CANCER” (NUVO RESEARCH AG, priority 2005, published 2013).

Key:
DPD = molecular target: T1, DPD (Homo sapiens, UniProt Q12882); conditions: in vivo; cited from earlier work
T1 construct: More than 80% of an administered dose of 5-FU is eliminated by catabolism through DPD
T1 sequence (Q12882 4-1025): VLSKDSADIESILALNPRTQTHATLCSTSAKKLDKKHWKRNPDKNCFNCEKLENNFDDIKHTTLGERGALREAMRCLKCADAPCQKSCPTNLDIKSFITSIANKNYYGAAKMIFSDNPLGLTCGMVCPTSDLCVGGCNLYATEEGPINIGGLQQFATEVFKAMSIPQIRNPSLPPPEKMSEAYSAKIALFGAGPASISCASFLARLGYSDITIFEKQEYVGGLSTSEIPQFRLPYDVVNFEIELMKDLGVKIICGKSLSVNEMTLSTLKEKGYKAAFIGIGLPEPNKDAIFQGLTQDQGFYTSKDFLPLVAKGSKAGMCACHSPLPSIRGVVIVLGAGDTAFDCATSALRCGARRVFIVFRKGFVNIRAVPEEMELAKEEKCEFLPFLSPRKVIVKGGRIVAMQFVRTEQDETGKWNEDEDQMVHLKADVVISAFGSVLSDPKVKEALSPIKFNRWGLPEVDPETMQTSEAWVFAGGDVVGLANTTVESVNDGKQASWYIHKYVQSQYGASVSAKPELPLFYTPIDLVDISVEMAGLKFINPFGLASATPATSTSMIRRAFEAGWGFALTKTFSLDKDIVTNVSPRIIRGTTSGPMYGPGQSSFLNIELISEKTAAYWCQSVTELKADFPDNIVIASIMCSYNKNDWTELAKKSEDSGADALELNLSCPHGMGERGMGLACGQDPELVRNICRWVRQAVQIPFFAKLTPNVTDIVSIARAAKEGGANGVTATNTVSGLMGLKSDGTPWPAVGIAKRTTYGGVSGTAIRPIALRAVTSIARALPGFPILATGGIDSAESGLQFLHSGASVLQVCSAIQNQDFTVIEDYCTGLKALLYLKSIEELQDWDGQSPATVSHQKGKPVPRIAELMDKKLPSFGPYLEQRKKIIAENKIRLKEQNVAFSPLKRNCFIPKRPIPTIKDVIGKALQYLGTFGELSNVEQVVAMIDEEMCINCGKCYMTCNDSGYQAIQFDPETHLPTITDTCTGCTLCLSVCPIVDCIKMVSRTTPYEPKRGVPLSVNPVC

[1] = phase II study, advanced or metastatic pancreatic cancer; cited from earlier work

## O=c1[nH]cc(F)c(=O)[nH]1 [5-FU, 5-Fluorouracil]
DPD
  administered dose eliminated by catabolism through DPD: More than 80%

## CCCCCOC(=O)Nc1nc(=O)n([C@@H]2O[C@H](C)[C@@H](O)[C@H]2O)cc1F [capecitabine]
[1]
  Median survival: 182 days
human, in vivo
  side effects: development of Xeloda-related side effects

## Nc1ccn([C@@H]2O[C@H](CO)[C@@H](O)C2(F)F)c(=O)n1 [gemcitabine]
Case Report #3
  disease progression: rapidly progressing metastasis
Case Report #3, T4NxM1
  QOL: declining QOL
